Five molecules from article PMC11845477, “Exploring the principles behind antibiotics with limited resistance” (Nature Communications, 2025) can be followed below.

Experiment [1] has as its system K. pneumoniae ATCC 10031 (SEN) and K. pneumoniae ATCC 700603 (MDR). The experiment is described as follows: Adaptive laboratory evolution (ALE), relative MIC of evolved lines. The conditions noted are these: for Relative MIC: ALE. It counts as cell-based, Klebsiella pneumoniae. From the text:
Using the same set of bacterial strains, we initiated adaptive laboratory evolution with the aim to maximize the level of antibiotic resistance in the populations achieved during a longer, but fixed time period.
An established protocol for adaptive laboratory evolution[46],[73] was followed to propagate populations with the highest resistance levels. Starting with an antibiotic concentration that caused approximately 50% growth inhibition, ten parallel populations for each antibiotic-ancestor strain combination were grown for 72 hours at 37 °C with continuous shaking (300 RPM). MHB broth medium was used unless stated otherwise. After each incubation, 20 µl of each culture was transferred to four new wells containing fresh medium with increasing antibiotic concentrations (0.5×, 1×, 1.5×, and 2.5× the previous concentration) in a chessboard layout to monitor potential cross-contamination. Growth was monitored by measuring OD600 using a Biotek Synergy 2 microplate reader, and only populations grown in the highest drug concentration with an OD600 > 0.2 were transferred further.
(§1) A robotic liquid handling system was used to automatically prepare a 11 to 16-step serial dilution in 384-well microtiter plates (Greiner). A final concentration of 5 × 10^5 bacterial cells per mL were inoculated into each well containing 60 µL MHB medium. Bacterial cultures were incubated at 37 °C with continuous shaking (Infors shaker, 900 rpm with 3 mm throw) for 18 hours (2 replicates from each). Cell growth was monitored by measuring the optical density (OD600 values, using Biotek Synergy microplate reader). MIC was defined as the antibiotic concentration of complete growth inhibition (i.e., OD600 < 0.05). Relative MIC was calculated as follows:1 relativeMIC=MICevolved/MICancestor […]
Supplementary Figure 4. Resistance levels following adaptive laboratory evolution across bacterial strains. The level of resistance was measured as the fold change in relative MIC between evolved and ancestral strains after ~60 days of adaptive laboratory evolution. Data are grouped by bacterial strain (A. baumannii (AB), E. coli (EC), K. pneumoniae (KP), and P. aeruginosa (PA)) and categorized as either multidrug-resistant (MDR) or sensitive (SEN). Each data point represents a laboratory evolved line, and boxplots show the median, first and third quartiles, with whiskers indicating the 5th and 95th percentiles.
Statistical analysis was performed using two-sided Dunn’s post-hoc test with Benjamini-Hochberg correction for multiple comparisons (****/ ***/ **/ * indicates p < 0.0001/ 0.001/ 0.01/ 0.05). For detailed information on antibiotic and bacterial species, see Supplementary Table 1. For mode of action groups, refer to Table 1. Source data are provided as a Source Data file.

The test system is the same in experiment [2]. Briefly: Frequency-of-resistance (FoR) assay, relative MIC of mutants. It counts as cell-based, Klebsiella pneumoniae. The conditions noted are these: for MIC: Klebsiella pneumoniae. As to the method: The susceptibility of antibiotics to resistance development was evaluated in two strains of each bacterial species: a multidrug-resistant strain and an antibiotic-sensitive strain of Escherichia coli, Klebsiella pneumoniae, Acinetobacter baumannii, and Pseudomonas aeruginosa. To explore first-step resistance, we previously used a standard protocol for spontaneous frequency-of-resistance analysis (FoR assay) at multiple concentrations of each antibiotic[10],[28],[31]–[33]. […] For all other combinations, approximately 10^10 bacterial cells were exposed to one of each antibiotic on agar plates for two days at concentrations where the given strain is susceptible. We examined resistance levels by contrasting the minimum inhibitory concentration (MICs) of the mutated strains to the original wild-type bacterial strain (i.e., relative MIC).
To estimate the frequency of spontaneous mutations that confer resistance in a microbial population, we conducted a frequency of resistance (FoR) assay following established protocols[10],[31]–[33]. […] Prior to plating, bacteria were grown overnight in MHB medium at 37 °C and 250 RPM, then centrifuged and washed in MHB. All experiments were performed in triplicate, and plates were incubated at 37 °C for 48 hours. Total colony-forming units (CFUs) were determined by plating appropriate dilutions onto antibiotic-free MHB agar. Resistance frequencies were calculated by dividing the number of resistant colonies by the initial viable cell count. From the plates with the highest antibiotic concentration, ten colonies were selected for MIC determination and whole-genome sequencing.
as §1
Supplementary Figure 3. Resistance levels following the frequency of resistance assay across bacterial strains. The level of resistance was measured as the fold change in relative MIC between evolved and ancestral strains. Data are grouped by bacterial strain (A. baumannii (AB), E. coli (EC), K. pneumoniae (KP), and P. aeruginosa (PA)) and categorized as either multidrug-resistant (MDR) or sensitive (SEN). Each data point represents a laboratory evolved line, and boxplots show the median, first and third quartiles, with whiskers indicating the 5th and 95th percentiles. […]
analysis was performed using two-sided Dunn’s post-hoc test with Benjamini-Hochberg correction for multiple comparisons (**/ * indicates p < 0.01/ 0.05). For detailed information on antibiotic and bacterial species, see Supplementary Table 1. For mode of action groups, refer to Table 1. Source data are provided as a Source Data file.

[3] abbreviates: Klebsiella pneumoniae ATCC 10031 (KP-SEN), evolved line 1.
Where [4] appears, read: Klebsiella pneumoniae ATCC 700603 (KP-MDR), evolved line 1.
Where [5] appears, read: Klebsiella pneumoniae ATCC 700603 (KP-MDR), evolved line 2.
Where [6] appears, read: Klebsiella pneumoniae ATCC 700603 (KP-MDR), evolved line 3.
Setting [7] is: read-out: MIC of evolved line, Klebsiella pneumoniae ATCC 10031 (KP-SEN), evolved line 1.
[8] abbreviates: read-out: MIC of evolved line, Klebsiella pneumoniae ATCC 700603 (KP-MDR), evolved line 1.
Where [9] appears, read: read-out: MIC of evolved line, Klebsiella pneumoniae ATCC 700603 (KP-MDR), evolved line 2.
Setting [10] is: read-out: MIC of evolved line, Klebsiella pneumoniae ATCC 700603 (KP-MDR), evolved line 3.

Where two headings read alike, the source gives them in different places. Where a SMILES comes first, the peptide text is derived from it. Bridges are numbered along the chain shown (N, C = ends). [ ]: non-standard residue; d: D form. The star is where a group is joined. X2 = CC[C@H](C)CCCCC(=O)*; Dab = NCC[C@H](N)C(=O)O

Consider polymyxin-B, for which the MIC of evolved line in experiment [1] (KP-MDR ATCC 700603, evolved line 1) was determined as 512 µg/mL; in experiment [1] (KP-MDR ATCC 700603, evolved line 2), 512 µg/mL; in experiment [1] (KP-MDR ATCC 700603, evolved line 3), 256 µg/mL; in experiment [1] (KP-MDR ATCC 700603, evolved line 4) it was 256 µg/mL; in experiment [1] (KP-MDR ATCC 700603, evolved line 5) it was 256 µg/mL; in experiment [1] (KP-MDR ATCC 700603, evolved line 6), 256 µg/mL. Moreover, the MIC of evolved line in experiment [1] (KP-MDR ATCC 700603, evolved line 7) is 256 µg/mL; in experiment [1] (KP-MDR ATCC 700603, evolved line 8), 512 µg/mL; in experiment [1] (KP-MDR ATCC 700603, evolved line 9), 256 µg/mL; in experiment [1] (KP-MDR ATCC 700603, evolved line 10) it was 256 µg/mL; in experiment [1] (KP-SEN (K. pneumoniae ATCC 10031), evolved line 1 of the given antibiotic), 512 µg/mL; in experiment [1] (KP-SEN (K. pneumoniae ATCC 10031), evolved line 2 of the given antibiotic), 1020 µg/mL. Besides, the MIC of evolved line in experiment [1] (KP-SEN (K. pneumoniae ATCC 10031), evolved line 3 of the given antibiotic) worked out at 1020 µg/mL; in experiment [1] (KP-SEN (K. pneumoniae ATCC 10031), evolved line 4 of the given antibiotic) it was 256 µg/mL; in experiment [1] (KP-SEN (K. pneumoniae ATCC 10031), evolved line 5 of the given antibiotic), 1020 µg/mL; in experiment [1] (KP-SEN (K. pneumoniae ATCC 10031), evolved line 7 of the given antibiotic) it was 256 µg/mL; in experiment [1] (KP-SEN (K. pneumoniae ATCC 10031), evolved line 8 of the given antibiotic) it was 256 µg/mL; in experiment [1] (KP-SEN (K. pneumoniae ATCC 10031), evolved line 9 of the given antibiotic) it was 1020 µg/mL. Further, the MIC of evolved line in experiment [1] (KP-SEN (K. pneumoniae ATCC 10031), evolved line 10 of the given antibiotic) amounted to 32 µg/mL; in experiment [2] (setting [3]), 2 µg/mL; in experiment [2] (Klebsiella pneumoniae ATCC 10031 (KP-SEN), evolved line 2), 2 µg/mL; in experiment [2] (Klebsiella pneumoniae ATCC 10031 (KP-SEN), evolved line 3) it was 2 µg/mL; in experiment [2] (setting [4]), 0.5 µg/mL; in experiment [2] (setting [5]) it was 4 µg/mL. The MIC of evolved line in experiment [2] (setting [6]) was 32 µg/mL.

Broadly, the MIC is the smallest concentration in the dilution series that meets the test's criterion for growth inhibition. In the case of `COc1c(N2C[C@@H]3CCCN[C@@H]3C2)c(F)cc2c(=O)c(C(=O)O)cn(C3CC3)c12` [Moxifloxacin], the MIC was 0.25 µg/mL in experiment [2] (setting [7]), 4 µg/mL in experiment [2] (setting [8]), 4 µg/mL in experiment [2] (setting [9]) and 4 µg/mL in experiment [2] (setting [10]).

Turning to POL7306, the “Relative MIC” value is reported as 1 in experiment [1] (setting [3]); 32 in experiment [1] (Klebsiella pneumoniae ATCC 10031 (KP-SEN), evolved line 4); 1 in experiment [1] (Klebsiella pneumoniae ATCC 10031 (KP-SEN), evolved line 7); 32 in experiment [1] (Klebsiella pneumoniae ATCC 10031 (KP-SEN), evolved line 8); 64 in experiment [1] (Klebsiella pneumoniae ATCC 10031 (KP-SEN), evolved line 10); 16 in experiment [1] (setting [4]). For the same molecule, the “Relative MIC” value in experiment [1] (setting [5]) amounted to 256; in experiment [1] (setting [6]), 256; in experiment [1] (Klebsiella pneumoniae ATCC 700603 (KP-MDR), evolved line 4) it was 256; in experiment [1] (Klebsiella pneumoniae ATCC 700603 (KP-MDR), evolved line 5), 256; in experiment [1] (Klebsiella pneumoniae ATCC 700603 (KP-MDR), evolved line 6), 256; in experiment [1] (Klebsiella pneumoniae ATCC 700603 (KP-MDR), evolved line 8) it was 256. Also, in experiment [1] (Klebsiella pneumoniae ATCC 700603 (KP-MDR), evolved line 10), the “Relative MIC” value is reported as 16.

Turning to `CC[C@H](C)CCCCC(=O)N[C@@H](CCN)C(=O)N[C@H](C(=O)N[C@@H](CCN)C(=O)N[C@H]1CCNC(=O)[C@H]([C@@H](C)O)NC(=O)[C@H](CCN)NC(=O)[C@H](CCN)NC(=O)[C@H](CC(C)C)NC(=O)[C@@H](Cc2ccccc2)NC(=O)[C@H](CCN)NC1=O)[C@@H](C)O` [Polymyxin B] (X2-[Dab]T[Dab][Dab][Dab][dF]L[Dab][Dab]T; lactam 4-C (inferred); N-terminus assumed), the “Relative MIC (log10)” value in experiment [1] (KP-MDR (Klebsiella pneumoniae ATCC 700603), evolved line 3) was found to be 2.408 log10; in experiment [1] (KP-MDR (Klebsiella pneumoniae ATCC 700603), evolved line 5) it was 2.408 log10; in experiment [1] (KP-MDR (Klebsiella pneumoniae ATCC 700603), evolved line 6), 2.408 log10; in experiment [1] (KP-MDR (Klebsiella pneumoniae ATCC 700603), evolved line 9) it was 2.408 log10; in experiment [1] (KP-MDR (Klebsiella pneumoniae ATCC 700603), evolved line 10) it was 2.408 log10; in experiment [1] (KP-SEN (Klebsiella pneumoniae ATCC 10031), evolved line 1), 2.408 log10. The “Relative MIC (log10)” value is 2.709 log10 in experiment [1] (KP-SEN (Klebsiella pneumoniae ATCC 10031), evolved line 2); 2.709 log10 in experiment [1] (KP-SEN (Klebsiella pneumoniae ATCC 10031), evolved line 3); 2.709 log10 in experiment [1] (KP-SEN (Klebsiella pneumoniae ATCC 10031), evolved line 9); 2.709 log10 in experiment [1] (KP-SEN, Klebsiella pneumoniae ATCC 10031, evolved line 5).

In the case of `C[C@@H](O)[C@H]1C(=O)N2C(C(=O)O)=C(S[C@@H]3CN[C@H](C(=O)N(C)C)C3)[C@H](C)[C@H]12` [Meropenem], the MIC amounted to 0.0156 µg/mL in experiment [2] (setting [7]); 0.0156 µg/mL in experiment [2] (read-out: MIC of evolved line, Klebsiella pneumoniae ATCC 10031 (KP-SEN), evolved line 2); 0.0156 µg/mL in experiment [2] (read-out: MIC of evolved line, Klebsiella pneumoniae ATCC 10031 (KP-SEN), evolved line 3); 2 µg/mL in experiment [2] (setting [8]); 0.0625 µg/mL in experiment [2] (setting [9]); 1 µg/mL in experiment [2] (setting [10]).
